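48-hour exposure; five concentrations; linearly interpolated endpoints. At the GI50, growth is halved.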 Active and inactive are the calls of the source. No stated cut-off is given here; in the data, active = GI50 up to about 1.1 µM and inactive = higher.

Test systems include A498; ACHN; CAKI-1; HCT-116; HOP-62; IGROV-1; LXFL 529; OVCAR-5; RPMI-8226; RXF 393; SF-295; SN12C; UACC-257; UO-31; COLO 205; OVCAR-3; Hs-578T; MCF7; MDA-MB-231; NCI/ADR-RES.
Common to all, as to test: inhibition of tumour cell growth, NCI panel, 48 h

In the case of `N=C(NC(=S)N1CCCCC1)N1CCCCC1`, the GI50 in the experiment with A498, in the experiment on ACHN, in the experiment with CAKI-1, in the experiment on HCT-116, in the experiment on HOP-62 and with IGROV-1 was > 100 µM (inactive) throughout. In addition, the GI50 in the experiment on LXFL 529, with OVCAR-5, with RPMI-8226, in the experiment on RXF 393, in the experiment on SF-295 and in the experiment with SN12C was > 100 µM (inactive) each time. The GI50 in the experiment on UACC-257 and in the experiment with UO-31 was > 100 µM (inactive) each time.

For the compound `CN(C)c1ccc(Cc2cc(C(C)(C)C)cc(C(C)(C)C)c2O)cc1`, the GI50 in the experiment with A498 is 18.2 µM (inactive); with ACHN, 16.6 µM (inactive); in the experiment on CAKI-1, 19.1 µM (inactive); in the experiment on HCT-116 it was 13.2 µM (inactive); with HOP-62 it was 20.9 µM (inactive); with IGROV-1 it was 18 µM (inactive). Also, the GI50 in the experiment on LXFL 529 is 15.2 µM (inactive); in the experiment on OVCAR-5, 6.27 µM (inactive); in the experiment on RPMI-8226, 11.5 µM (inactive); in the experiment on RXF 393, 16.4 µM (inactive); in the experiment on SF-295 it was 18.9 µM (inactive); in the experiment on SN12C it was 16.1 µM (inactive). Further, the values for the GI50 in the experiment on UACC-257 and in the experiment with UO-31 were 15.6 µM (inactive) and 17.2 µM (inactive), respectively.

With `CN1CC(=O)N(C)c2[nH]cnc2C1=O`, the GI50 with A498, in the experiment with ACHN, with COLO 205, with IGROV-1, in the experiment with LXFL 529 and in the experiment on OVCAR-3 was > 100 µM (inactive) in each case. Moreover, the GI50 with OVCAR-5, with RPMI-8226, in the experiment with RXF 393, in the experiment on SF-295, in the experiment on SN12C and with UO-31 was > 100 µM (inactive) in each case.

As to `CC1(C)O[C@H]2[C@H](O)C[C@](O)(CO)C[C@H]2O1`, the GI50 with ACHN, in the experiment on CAKI-1, in the experiment on COLO 205, in the experiment on HCT-116, in the experiment with IGROV-1 and in the experiment with LXFL 529 was > 100 µM (inactive) each time. In addition, the GI50 in the experiment with OVCAR-3, in the experiment with OVCAR-5, with RPMI-8226, with RXF 393, with SF-295 and in the experiment on SN12C was > 100 µM (inactive) in each case. For the same compound, the GI50 in the experiment with UACC-257 and with UO-31 was > 100 µM (inactive) throughout.

Take `ON=C1CCC(c2ccccc2)CC1` (stereo not given): the GI50 with A498, in the experiment on ACHN, in the experiment on CAKI-1, with COLO 205, in the experiment on HCT-116 and in the experiment with HOP-62 was > 100 µM (inactive) each time. Moreover, the GI50 in the experiment on IGROV-1, in the experiment with LXFL 529, in the experiment with OVCAR-3, in the experiment on OVCAR-5, with RXF 393 and in the experiment on SF-295 was > 100 µM (inactive) throughout. Besides, the GI50 in the experiment on SN12C, with UACC-257 and in the experiment on UO-31 was > 100 µM (inactive) throughout.

Regarding `O=[N+]([O-])c1c(/C=N/c2ccccc2)oc(-c2ccc3c(c2)OCO3)c1-c1ccc2c(c1)OCO2`, the GI50 in the experiment on ACHN, in the experiment with CAKI-1, in the experiment with COLO 205, in the experiment with HCT-116, in the experiment with HOP-62 and in the experiment with IGROV-1 was > 100 µM (inactive) in each case. Also, the GI50 with LXFL 529, in the experiment with OVCAR-3, with OVCAR-5, with RPMI-8226, in the experiment with RXF 393 and in the experiment on SF-295 was > 100 µM (inactive) throughout. Also, the GI50 in the experiment with SN12C was > 100 µM (inactive); in the experiment on UACC-257 it was > 100 µM (inactive); in the experiment on UO-31, 9.29 µM (inactive).

Consider `O=C1[C@@H](c2ccc(Cl)cc2)[C@H]2CC=C[C@H]2N1O`, for which the GI50 in the experiment on CAKI-1, in the experiment with COLO 205, in the experiment on HOP-62, in the experiment with IGROV-1, in the experiment with LXFL 529 and in the experiment on OVCAR-3 was > 100 µM (inactive) in each case. Further, the GI50 with RPMI-8226 was > 100 µM (inactive); with RXF 393, 14.3 µM (inactive); in the experiment on SF-295, > 100 µM (inactive); with SN12C it was > 100 µM (inactive); in the experiment with UACC-257, > 100 µM (inactive); in the experiment on UO-31 it was 89.7 µM (inactive).

For `Cc1ccc(C2=C(c3ccccc3)C(O)(c3ccccc3)C(c3ccccc3)=C2c2ccc(C)cc2)cc1`, the GI50 with A498 is > 100 µM (inactive); in the experiment on ACHN it was > 100 µM (inactive); in the experiment with HCT-116, 29.9 µM (inactive); in the experiment on HOP-62, > 100 µM (inactive); with IGROV-1 it was > 100 µM (inactive); in the experiment with LXFL 529, > 100 µM (inactive). The GI50 is > 100 µM (inactive) with OVCAR-5; 35.7 µM (inactive) in the experiment on RPMI-8226; > 100 µM (inactive) with RXF 393; 35.6 µM (inactive) in the experiment with SF-295; > 100 µM (inactive) in the experiment with SN12C; > 100 µM (inactive) with UACC-257. The GI50 in the experiment on UO-31 is 78.7 µM (inactive).

Take `O=C1NC(O)CCN1C1CC(O)C(CO)O1` (stereo not given): the GI50 in the experiment with A498, in the experiment with ACHN, in the experiment with CAKI-1, in the experiment on COLO 205, with HCT-116 and in the experiment on HOP-62 was > 100 µM (inactive) throughout. For the same compound, the GI50 in the experiment on Hs-578T, with IGROV-1, in the experiment on MCF7, in the experiment on MDA-MB-231, with NCI/ADR-RES and in the experiment on OVCAR-3 was > 100 µM (inactive) each time. In addition, the GI50 in the experiment on OVCAR-5, in the experiment with RPMI-8226, in the experiment with RXF 393, in the experiment on SF-295, in the experiment on SN12C and in the experiment with UACC-257 was > 100 µM (inactive) each time. The GI50 with UO-31 was > 100 µM (inactive).

For `N#Cc1c(N2CCCC2)ncn(Cc2ccccc2)c1=S`, the GI50 in the experiment with A498 was 40.6 µM (inactive); in the experiment on ACHN it was > 92.7 µM (inactive); in the experiment on CAKI-1 it was > 48 µM (inactive); in the experiment with COLO 205 it was > 100 µM (inactive); in the experiment with HCT-116 it was > 100 µM (inactive); in the experiment on HOP-62, 40.3 µM (inactive). Also, the GI50 was > 54.8 µM (inactive) with Hs-578T; > 87.9 µM (inactive) in the experiment on IGROV-1; 49.1 µM (inactive) with MCF7; > 88.3 µM (inactive) with MDA-MB-231; 65 µM (inactive) in the experiment on NCI/ADR-RES; 60.5 µM (inactive) in the experiment with OVCAR-3. In addition, the GI50 with OVCAR-5 is > 100 µM (inactive); in the experiment on RPMI-8226, > 100 µM (inactive); with RXF 393, 30.3 µM (inactive); in the experiment with SF-295, 94.6 µM (inactive); in the experiment on SN12C, > 100 µM (inactive); in the experiment on UACC-257 it was > 100 µM (inactive). Also, in the experiment on UO-31, the GI50 was > 100 µM (inactive).

Turning to `CCOC(=O)N1N=C(/C(C)=N/OC)C(C)[S+]1[O-]` (stereo not given), the GI50 in the experiment on A498, in the experiment with ACHN, in the experiment on CAKI-1, in the experiment on COLO 205, in the experiment on HCT-116 and in the experiment with HOP-62 was > 100 µM (inactive) in each case. Besides, the GI50 in the experiment on Hs-578T, in the experiment on IGROV-1, in the experiment on MCF7, in the experiment with MDA-MB-231, with NCI/ADR-RES and in the experiment with OVCAR-3 was > 100 µM (inactive) throughout. Also, the GI50 in the experiment with OVCAR-5, in the experiment with RPMI-8226, with RXF 393, with SF-295, with SN12C and in the experiment with UACC-257 was > 100 µM (inactive) throughout. Moreover, the GI50 in the experiment with UO-31 was > 100 µM (inactive).

As to `O=C(O)COc1ccc(C(=O)/C(SS/C(C(=O)c2ccc(OCC(=O)O)c(Cl)c2Cl)=C2\C=C(c3ccc(Cl)cc3)SS2)=C2/C=C(c3ccc(Cl)cc3)SS2)c(Cl)c1Cl`, the GI50 in the experiment with A498 is 31.1 µM (inactive); in the experiment on ACHN it was 8.39 µM (inactive); in the experiment with CAKI-1 it was 28.1 µM (inactive); with COLO 205 it was 0.339 µM (active); in the experiment with HCT-116, 9.08 µM (inactive); in the experiment on HOP-62 it was 39.8 µM (inactive). For the same compound, the GI50 is 13.3 µM (inactive) in the experiment with IGROV-1; 4.61 µM (inactive) in the experiment on LXFL 529; 5.37 µM (inactive) in the experiment with OVCAR-3; 30.1 µM (inactive) with OVCAR-5; 22.3 µM (inactive) with RPMI-8226; 18.2 µM (inactive) with SF-295. For the same compound, the GI50 was 0.319 µM (active) with SN12C, 78.2 µM (inactive) in the experiment with UACC-257 and 4.89 µM (inactive) in the experiment with UO-31.

Take `c1ccc(CN2CCN3CCN(CC2)CCN(Cc2ccccc2)CC3)cc1`: the GI50 was 11.7 µM (inactive) in the experiment on A498; 20.7 µM (inactive) in the experiment on ACHN; 30.3 µM (inactive) with CAKI-1; 1.93 µM (inactive) in the experiment with COLO 205; 4.09 µM (inactive) with HCT-116; 14.2 µM (inactive) in the experiment on HOP-62. Besides, the GI50 with Hs-578T was 14.6 µM (inactive); in the experiment on IGROV-1, 7.23 µM (inactive); in the experiment on MCF7 it was 5.5 µM (inactive); in the experiment with MDA-MB-231, 5.43 µM (inactive); in the experiment with NCI/ADR-RES, > 100 µM (inactive); with OVCAR-3, 7.91 µM (inactive). Also, the GI50 in the experiment with OVCAR-5 is 9.48 µM (inactive); with RPMI-8226, 2.14 µM (inactive); with RXF 393, 5.6 µM (inactive); in the experiment with SF-295, 21.9 µM (inactive); in the experiment with SN12C it was 4.51 µM (inactive); in the experiment with UACC-257, 3.04 µM (inactive). Further, the GI50 in the experiment on UO-31 is 31.7 µM (inactive).

The values are drawn from ChEMBL document CHEMBL1201862, “PubChem BioAssay data set” (2004).
